Measured values taken from EP4509145A1, “PSMA THERANOSTIC COMPOUNDS ASSEMBLED WITH TETRAZINE-TRANS-CYCLOOCTENE LIGATION” (University of Copenhagen, priority 2023, dated 2025).
Where two headings read alike, the source gives them in different places. One block for each compound: values may come before it.

Columns and labels:
[1] = in vivo PET imaging in rats of [^18F]-labeled PSMA derivatives; conditions: healthy rats, i.v., 90-min PET acquisition (Figure 15)
Method: Long-Evans female rats weighing 200 - 300 g (Charles River, Calco, Italy), were housed in a cage of 2-3 rats per cage and kept in a climate-controlled facility with a 12-hr light/dark cycle. The cages had environmental enrichment (nest box, biting stick). All rats were fed ad libitum with commercial breeding diet (1310 FORTI-Avlsfoder, Brogaarden, Altromin International) and had free access to water. All the experiments were performed in accordance with the European Commission's Directive 2010/63/EU, FELASA and ARRIVE guidelines for animal research and, with approval from The Danish Council for Animal Ethics (license numbers 2017-15-0201-01283 and 2017-15-0201-01375) together with the Department of Experimental Medicine, University of Copenhagen.
The scans were performed on the Siemens HRRT (High-Resolution Research Tomography) (CPS Innovations/Siemens, Malvern, PA, USA). On the day of experiment, the rats were weighed and then transported to the scanner at least 2 h before the scan. Anesthesia was induced using 3% isoflurane in oxygen flow. All rats were placed in a 2 × 2 custom made rat holder, enabling simultaneous scanning of four rats 17-19. While in the custom-made rat holder, the rats were kept under anesthesia with a constant flow of isoflurane (-2% isoflurane in oxygen). […]

LNCaP cells = test: internalization assay (surface binding and internalization, with and without 2-PMPA block); assay type: cell-based; conditions: for Cell surface / Internalized: n = 4; for Cell surface blocked / Internalized blocked: with 2-PMPA 500 µM/well
Method: Poly-L-Lysine (300 µL of a 0.01% w/v in H2O) is added to each well of a 24-well plate (Greiner Bio). The plate is left at room temperature for 20-30 minutes. Afterwards, the poly-L-lysine solution is removed, and the wells washed with 500 µL of PBS. Afterwards, 1 mL of LNCaP cells suspension is placed in each well to obtain 10^5 cells/well. The 24-well plates are left in the incubator overnight until the start of the internalisation experiment. Subsequently, the previously plated cells were incubated at 37 °C with the selected ^18 F-labelled PSMA derivative in 250 µL growth medium for 45 min (c = 32 nM). For the determination of specific uptake, 2-PMPA was added into half of the wells in an excess concentration of 500 µM/well. After incubation, cellular uptake was interrupted by removing the medium and washing the cells with ice-cold PBS (3 × 1 mL). The surface bound radioactivity was removed by washing with 50 mM glycine (pH 2.8, 2 × 500 µL). Finally, the internalized fraction was determined by lysis of the cells with 0.3 M NaOH (1 × 500 µL). Fractions collected from the surface bound activity and lysates were collected and measured in a gamma counter. All counts were normalized to the starting activity and specific surface binding as well as specific internalization were determined by subtracting the non-specific binding obtained from the wells treated with 2-PMPA. Results were calculated and expressed as %AA/10^5 cells (% applied activity/105 cells, n = 4). [^68Ga]-PSMA617 was selected as a reference to compare internalization values. The experiment was conducted two times on different compounds. PSMA-617 was used as a reference and internal control for both experiments. […] The higher internalization could have a big impact on the therapeutic effect of such molecules.

PSMA = target: T1, PSMA (Rattus norvegicus, UniProt P70627); test: in vitro autoradiography competition assay on rat brain slices against [^111In]In-PSMA-617; assay type: binding
T1 construct: tissue Taconic Biosciences (rats); host or cells: rat brain, sagittal slices containing midbrain
Method: This method provided [^111In]-PSMA-617 in >95% radiochemical yield, as determined by reverse-phase HPLC.
Rat brain slices were obtained from female Sprague-Dawley rats (weight~250g; Taconic Biosciences). The rats were sacrificed by decapitation, brains were extracted, frozen at -80 °C and stored at the same temperature. To prepare slices for autoradiography, brains were cut into halves along the sagittal symmetry plane. Each half was mounted, lateral side up, on the cryostat sample holder pretreated by Tissue-Tek OCT compound and fixed by freezing in the cryostat. […]
For competition assay, the slides were incubated with 2 nM [^111In]In-PSMA-617 and increasing concentrations (0.1-30 nM) of investigated PSMA derivatives for the same amount of time in the same assay buffer. Non-specific binding was determined by adding 5 µM 2-(phosphonomethyl)pentanedioic acid (PMPA) to [^111In]In-PSMA-617 solutions. […]
The screens were then read by a Cyclone Plus storage phosphor system (Packard Instruments Co). Quantification of readings was done with Optiquant software (version 3.00, Packard Instruments Co). Namely, elliptic regions of interest (ROIs) encompassing the midbrain and cerebellar nuclei were drawn inside the brain slice images, while circular ROIs were drawn around calibration curve spots, and average exposure was calculated for both ROI categories. […]

[2] = first experiment, LNCaP, 37 °C, 45 min, c = 32 nM
[3] = second experiment ([^68Ga] compounds), LNCaP, 37 °C, 45 min, c = 32 nM
[4] = second experiment ([^68Ga] compounds)

T1 sequence (P70627 whole entry): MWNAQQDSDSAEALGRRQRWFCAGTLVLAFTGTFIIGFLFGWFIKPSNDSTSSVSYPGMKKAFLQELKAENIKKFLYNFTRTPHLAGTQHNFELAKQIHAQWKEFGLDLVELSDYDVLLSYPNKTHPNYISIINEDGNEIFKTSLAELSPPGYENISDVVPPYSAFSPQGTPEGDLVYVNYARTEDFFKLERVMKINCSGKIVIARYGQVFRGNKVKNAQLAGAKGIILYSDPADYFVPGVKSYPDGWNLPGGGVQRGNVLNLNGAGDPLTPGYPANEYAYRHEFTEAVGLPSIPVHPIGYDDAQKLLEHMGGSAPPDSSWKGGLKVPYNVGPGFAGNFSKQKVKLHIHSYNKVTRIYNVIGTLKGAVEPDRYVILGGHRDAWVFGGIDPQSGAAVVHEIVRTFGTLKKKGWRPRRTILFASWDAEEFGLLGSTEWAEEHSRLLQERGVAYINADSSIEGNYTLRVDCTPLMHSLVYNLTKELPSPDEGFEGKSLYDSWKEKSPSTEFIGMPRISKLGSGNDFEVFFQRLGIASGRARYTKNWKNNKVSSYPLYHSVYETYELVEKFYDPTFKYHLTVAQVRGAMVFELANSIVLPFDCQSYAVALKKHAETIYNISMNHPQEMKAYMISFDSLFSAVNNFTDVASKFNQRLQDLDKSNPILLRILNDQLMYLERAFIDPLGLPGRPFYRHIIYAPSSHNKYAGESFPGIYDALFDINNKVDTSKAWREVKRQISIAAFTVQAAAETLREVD

Structure (SMILES): O=C(O)CC[C@H](NC(=O)N[C@@H](CCCCNC(=O)[C@H](Cc1ccc2ccccc2c1)NC(=O)[C@H]1CC[C@H](CNC(=O)CN2C(=O)c3cc4nc5c(nc4cc3C2=O)CCc2c(cnnc2-c2ccc(OCCF)cc2)CC5)CC1)C(=O)O)C(=O)O [[^18F]16, PSMA-NH-T4CO-FTz]
excretion route [1]: excreted mainly through the liver
Cell surface (LNCaP cells; [2]): 0.36 ± 0.03 %AA/10^5 cells
Internalized (LNCaP cells; [2]): 1.98 ±0.17 %AA/10^5 cells
Cell surface blocked (LNCaP cells; [2]): 0.09 ± 0.01 %AA/10^5 cells
Internalized blocked (LNCaP cells; [2]): 0.78 ± 0.11 %AA/10^5 cells

Ki (PSMA; competition with 2 nM [^111In]In-PSMA-617, 1.5 h, Ki from IC50 by Cheng-Prusoff, mean ± SD, number of determinations in parentheses, read-out: Affinity (Ki)): 0.0031 ± 0.00028 µM
Structure (SMILES): N=C(N)NCCCC(NC(=O)CN1C(=O)c2cc3nc4c(nc3cc2C1=O)CCc1c(cnnc1-c1ccc(OCC[18F])cc1)CC4)C(=O)NC(CCC(=O)O)C(=O)NC(CCCNC(=N)N)C(=O)NC(CCC(=O)O)C(=O)NC(CCCNC(=N)N)C(=O)NC(CCC(=O)O)C(=O)NCC1CCC(C(=O)NC(Cc2ccc3ccccc3c2)C(=O)NCCCCC(NC(=O)NC(CCC(=O)O)C(=O)O)C(=O)O)CC1 (centres unmarked) [[^18F]30, PSMA-NH-AAAAAA-T4CO-FTz]
Cell surface (LNCaP cells; [2]): 0.64 ± 0.10 %AA/10^5 cells
Internalized (LNCaP cells; [2]): 0.54 ± 0.06 %AA/10^5 cells
Cell surface blocked (LNCaP cells; [2]): 0.08 ± 0.01 %AA/10^5 cells
Internalized blocked (LNCaP cells; [2]): 0.07 ± 0.01 %AA/10^5 cells

Structure (SMILES): N=C(N)NCCCC(NC(=O)CN1C(=O)c2cc3nc4c(nc3cc2C1=O)CCc1c(cnnc1-c1ccc(OCC[18F])cc1)CC4)C(=O)NC(CCCNC(=N)N)C(=O)NC(CCCNC(=N)N)C(=O)NCC1CCC(C(=O)NC(Cc2ccc3ccccc3c2)C(=O)NCCCCC(NC(=O)NC(CCC(=O)O)C(=O)O)C(=O)O)CC1 (centres unmarked) [[^18F]40, PSMA-3Arg-NH-T4CO-FTz]
Ki (PSMA; read-out: Affinity (Ki), competition with 2 nM [^111In]In-PSMA-617, 1.5 h, Ki from IC50 by Cheng-Prusoff, mean ± SD, number of determinations in parentheses): 0.0475 µM
Cell surface (LNCaP cells; [2]): 5.15 ± 0.87 %AA/10^5 cells
Internalized (LNCaP cells; [2]): 4.53 ± 0.55 %AA/10^5 cells
Cell surface blocked (LNCaP cells; [2]): 4.70 ± 1.05 %AA/10^5 cells
Internalized blocked (LNCaP cells; [2]): 4.10 ± 0.65 %AA/10^5 cells

Structure (SMILES): O=C(O)CC[C@H](NC(=O)N[C@@H](CCCCNC(=O)[C@H](Cc1ccc2ccccc2c1)NC(=O)[C@H]1CC[C@H](CNC(=O)CN2CCN(CC(=O)O)CCN(CC(=O)O)CCN(CC(=O)O)CC2)CC1)C(=O)O)C(=O)O [[^68Ga]-PSMA-617, vipivotide tetraxetan, metal not drawn, reference compound]
Cell surface (LNCaP cells; [2]): 0.36 ± 0.03 %AA/10^5 cells
Internalized (LNCaP cells; [2]): 0.27± 002 %AA/10^5 cells
Cell surface blocked (LNCaP cells; [2]): 0.03± 0.01 %AA/10^5 cells
Internalized blocked (LNCaP cells; [2]): 0.03 ± 0.01 %AA/10^5 cells
Cell surface (LNCaP cells; [3]): 0.36 ± 0.03 %AA/10^5 cells
Internalized (LNCaP cells; [3]): 0.13± 001 %AA/10^5 cells
Cell surface blocked (LNCaP cells; [4]): 0.03± 0.01 %AA/10^5 cells
Internalized blocked (LNCaP cells; [4]): 0.02 ± 0.01 %AA/10^5 cells
